# Laboratory results reported in patent EP0414533A1, “Use of iodopropargyl esters of alpha-amino acid derivatives as antimicrobial agents” (ROHM AND HAAS COMPANY, priority 1989, dated 1991).
# Where two headings read alike, the source gives them in different places.
# Tests used:
# Aspergillus niger (ANIG) = experiment: Minimum inhibitory concentration (MIC), broth two-fold serial dilution test; type: cell-based; settings: Aspergillus niger, IIIB, trypticase soy broth (complex media); Table IIIb; read-out: MIC (F) ANIG
# [1] = system: MIXED COOLING TOWER ALGAE; experiment: MIC test against mixed cooling tower algae; type: cell-based, green algae and blue-green bacteria; settings: Table VIII
# Procedure: The algae culture contains green algae and blue-green bacteria, and is obtained from a cooling tower in Spring House, Pennsylvania. The algae culture is grown in Allen's medium on a rotary shaker under flourescent room lighting. This culture is further diluted with Allen's medium and then added to the test vessel.
# Botrytis cinerea (BOC) = experiment: In-vitro plant fungicide test; type: cell-based; settings: Botrytis cinerea, 25 ppm; Table IVa; *=Phytotoxic; read-out: % Control at 25 ppm BOC
# [2] = system: Phytophthora capsici (PHY); experiment: In-vitro plant fungicide test; type: cell-based; settings: Phytophthora capsici; 25 ppm; Table IVa; read-out: % Control at 25 ppm PHY
# Piricularia oryzae (PIR) = experiment: microbe, parasite or virus in culture; type: cell-based; settings: read-out: % Control at 25 ppm PIR
# Pythium ultimum (PYU) = experiment: In-vitro plant fungicide test; type: cell-based; settings: Globisporangium ultimum; 25 ppm; Table IVa; read-out: % Control at 25 ppm PYU
# Septoria nodorum (SEP) = experiment: In-vitro plant fungicide test; type: cell-based; settings: Parastagonospora nodorum, 25 ppm; Table IVa; read-out: % Control at 25 ppm SEP
# 8 FUNGI = experiment: Microbicides secondary test against 8 fungi on Mycophile Agar at pH 5.0 (Table VI); type: cell-based; parameters: key: 1= no growth; 0= growth of the indicated fungi at dose indicated in ppm; settings: for ANIG growth: Aspergillus niger; for APUL growth: Aureobasidium pullulans; for CGLO growth: Chaetomium globosum; for CRES growth: Cladosporium resinae; for GTRA growth: Gloeophyllum trabeum; for PFUN growth: Penicillium funiculosum; for RRUB growth: Rhodotorula rubra; for SSER growth: Sacharomyces cerevisiae
# Excerpt: The results of the minimum inhibitory concentration (MIC) tests of compounds of this invention are shown in Tables IIIa IIIb, IIIc, V, VI, VII, and VIII against the microorganisms shown in Table IX.
# THREE FUNGI = experiment: MIC test against three fungi in Mycophile Broth, pH 5.0, read after 8 days (Table VII); type: cell-based; settings: 192 h, serial dilutions from 50 ppm, read after 8 days of incubation
# [3] = system: Pseudomonas fluorescens (PSFL); experiment: Minimum inhibitory concentration (MIC), broth two-fold serial dilution test; settings: Pseudomonas fluorescens, IIIB, read-out: MIC (G-) PSFL, trypticase soy broth (complex media); Table IIIb
# Excerpt: (§1) When the test is ready to be done, each vessel in the dilution series, except the first vessel, contains an equal volume of compound free broth. The first vessel contains twice the volume of broth with the starting concentration of test compound. One half of the broth from the first vessel is transferred to the second vessel. After being mixed, one half the resulting volume is removed from the second vessel and transferred to the third vessel. The entire cycle is repeated sufficiently to give a series of concentrations amounting to 500, 250, 125, 63, 31, 16, 8, and 4 ppm (or 100, 50, 25, 12.5, 6.2, 3.1, 1.6, and 0.8), respectively.
# (§2) Each vessel is then inoculated with a cell suspension of the appropriate test organism. Bacteria are grown in broth, fungi on agar slants for a time and at a temperature appropriate to the species being tested, and algae are a mixture of green algae and blue-green bacteria grown in a nutrient media. At the end of the growth period, in the case of bacteria, the broth is vortexed to disperse the cells.
# (§3) The vessels are then incubated at the appropriate temperature. After the incubation, the vessels are examined for growth/no growth.
# Escherichia coli (ECOL) = experiment: as above; settings: Escherichia coli, IIIB, read-out: MIC (G-) ECOL, trypticase soy broth (complex media); Table IIIb
# Excerpt: as §1, §2, §3
# [4] = system: Staphylococcus aureus (SAUR); experiment: as above; settings: Staphylococcus aureus, IIIB, read-out: MIC (G+) SAUR, trypticase soy broth (complex media); Table IIIb
smiles,measurement,setting,value
"O=C(CNC(=O)c1ccccc1)OCC#CI [Compound 29, N-benzoylglycine iodopropargyl ester]",MIC,Aspergillus niger (ANIG),0.5 µg/mL
same,MIC,[1],6.2 µg/mL
same,inhibition of growth at 25 ppm,Botrytis cinerea (BOC),100%
same,inhibition of growth at 25 ppm,[2],100%
same,inhibition of growth at 25 ppm,Piricularia oryzae (PIR),100%
same,inhibition of growth at 25 ppm,Pythium ultimum (PYU),100%
same,inhibition of growth at 25 ppm,Septoria nodorum (SEP),100%
same,ANIG growth,8 FUNGI; 0.2 PPM,0
same,ANIG growth,8 FUNGI; 1.0 PPM,1
same,ANIG growth,8 FUNGI; 2.5 PPM,1
same,ANIG growth,8 FUNGI; 25 PPM,1
same,APUL growth,8 FUNGI; 0.2 PPM,0
same,APUL growth,8 FUNGI; 1.0 PPM,0
same,APUL growth,8 FUNGI; 2.5 PPM,0
same,APUL growth,8 FUNGI; 25 PPM,1
same,CGLO growth,8 FUNGI; 0.2 PPM,0
same,CGLO growth,8 FUNGI; 1.0 PPM,0
same,CGLO growth,8 FUNGI; 2.5 PPM,0
same,CGLO growth,8 FUNGI; 25 PPM,1
same,CRES growth,8 FUNGI; 0.2 PPM,0
same,CRES growth,8 FUNGI; 1.0 PPM,0
same,CRES growth,8 FUNGI; 2.5 PPM,0
same,CRES growth,8 FUNGI; 25 PPM,1
same,GTRA growth,8 FUNGI; 0.2 PPM,0
same,GTRA growth,8 FUNGI; 1.0 PPM,1
same,GTRA growth,8 FUNGI; 2.5 PPM,1
same,GTRA growth,8 FUNGI; 25 PPM,1
same,PFUN growth,8 FUNGI; 0.2 PPM,0
same,PFUN growth,8 FUNGI; 1.0 PPM,0
same,PFUN growth,8 FUNGI; 2.5 PPM,1
same,PFUN growth,8 FUNGI; 25 PPM,1
same,RRUB growth,8 FUNGI; 0.2 PPM,0
same,RRUB growth,8 FUNGI; 1.0 PPM,0
same,RRUB growth,8 FUNGI; 2.5 PPM,0
same,RRUB growth,8 FUNGI; 25 PPM,1
same,SSER growth,8 FUNGI; 0.2 PPM,0
same,SSER growth,8 FUNGI; 1.0 PPM,0
same,SSER growth,8 FUNGI; 2.5 PPM,0
same,SSER growth,8 FUNGI; 25 PPM,1
same,MIC,"THREE FUNGI; Aspergillus niger, read-out: MIC ANIG",1.6 µg/mL
same,MIC,"THREE FUNGI; Aureobasidium pullulans, read-out: MIC APUL",12.5 µg/mL
same,MIC,"THREE FUNGI; Gloeophyllum trabeum, read-out: MIC GTRA",3.2 µg/mL
same,MIC,[3],32 µg/mL
same,MIC,Escherichia coli (ECOL),125 µg/mL
same,MIC,[4],32 µg/mL
